Consider eight compounds from patent publication US20260256818A1, “NOVEL CO-DRUG, CO-ADMINISTRATION, AND SEQUENTIAL ADMINISTRATION OF BISPECIFIC RBP4/TTR LIGAND AND C20-D3-RETINOL FOR ELIMINATION OF MECHANISM-BASED OCULAR ADVERSE EFFECTS IN TREATING MACULAR DEGENERATION AND TTR AMYLOIDOSIS” (The Trustees of Columbia University in the City of New York, priority 2023, published 2026).

Series [1] concerns lipofuscin bisretinoid synthesis. The note with it: Abca4-/- mice; cited from earlier work.
For series [2], the system named is RBP4. The note with it: non-human primates, oral administration; cited from earlier work.
The conditions of series [3]: long-term use, cancer patients; cited from earlier work.
The conditions of series [4]: Phase 2, dry AMD patients; cited from earlier work.
Series [5] concerns the target T1, RBP4 (Mus musculus, UniProt Q00724).
T1 construct: circulating RBP4 plasma levels in rodents; host or cells: plasma/serum of rodents
Conditions: rodents; cited from earlier work.

For series [6] the following is noted: cited from earlier work.
For series [7] the following is noted: patients treated for TTR amyloidosis; cited from earlier work.
The test system of a further series is rhodopsin. Nature of the series: Rhodopsin measured spectrophotometrically in retinal extracts of dark-adapted mice after 7 days oral dosing. The class given is in vivo. Conditions: wild-type Balb/c mice, 25 mg/kg daily oral (chow), n=8. The procedure:
FIG. 14. Effects of C20-D3-retinyl acetate on rhodopsin levels in ACPHS-52-treated Balb/c mice. Rhodopsin was measured spectrophotometrically in retinal extracts (n=8) from dark-adapted treated and control mice. Treated mice were given 7 daily oral dose of 25 mg/kg ACPHS-52 or the same dose of ACPHS-52 along with 3.3 mg/kg C20-D3-retinyl acetate. Untreated control mice were kept on standard diet.
ACPHS-52 was previously identified and described as a compound that exemplifies a novel class of bispecific ligands that act as both RBP4 antagonists and kinetic stabilizers of TTR tetramers (Cioffi, C. L. et al. 2020). Thus, ACPHS-52 was used as a representative “first component” of the present disclosure in order to assess the feasibility of the co-drug strategy. Accordingly, an experiment was conducted to determine whether partial reduction in functional rhodopsin (opsin with conjugated 11-cis-retinal) induced by oral ACPHS-52 in mice can be compensated by co-administration with C20-D3-retinyl acetate.
The experiment was conducted in Balb/c mice. Three groups of mice were used: control untreated mice; mice treated with ACPHS-52; and mice treated with the ACPHS-52 plus C20-D3-retinyl acetate combination. […] Rhodopsin was measured spectrophotometrically in retinal extracts (n=8) from dark-adapted treated and control mice using a previously published protocol (Racz, B. et al. 2018).

For series [8], the system named is RBP4. Conditions: in vivo; cited from earlier work.
A further series deals with TTR tetramers (Homo sapiens, UniProt P02766). The note with it: cited from earlier work.
In a further series the test system is TTR. Conditions: ATTR-CM patients with symptomatic, chronic heart failure, Phase III; cited from earlier work.

For the compound `Cc1cc(C(=O)O)nc(N2C[C@H]3CC(c4ccccc4C(F)(F)F)C[C@H]3C2)n1` (stereo partly shown) [Compound 8, BPN-14136], in [1], the “effect on retinal bisretinoid accumulation/synthesis” value is recorded as “inhibited lipofuscin bisretinoid synthesis”. Moreover, in the series with RBP4 [2], the “effect on serum RBP4 levels” value is “robustly lowered serum RBP4 levels”.

With `CC1=C(/C=C/C(C)=C/C=C/C(C)=C/C(=O)Nc2ccc(O)cc2)C(C)(C)CCC1` [fenretinide], in [3], the “yearly prevalence of transient and reversible ocular AEs such as diminished dark adaptation” value is 5.8-6.7%. Further, in [4], the “drug-treated patients with reversible reduction in dark adaptation” value is reported as ~ 10%.

For the compound `O=C(O)c1ccccc1NC(=O)N1CCC(c2ccccc2C(F)(F)F)CC1` [Compound A1120, A1120], on RBP4 [5], the “lowering of circulating RBP4 plasma levels” value is > 70%. Also, in series [1], the “effect on retinal bisretinoid accumulation/synthesis” value is on record as “reduce retinal bisretinoid accumulation”.

On to `[2H]C([2H])([2H])C(/C=C/C=C(C)/C=C/C1=C(C)CCCC1(C)C)=C\COC(C)=O` [C20-D3-retinyl acetate], for which, in [1], the “effect on retinal bisretinoid accumulation/synthesis” value was “effective in inhibiting bisretinoid synthesis”.

As for `O=C(O)c1ccc2nc(-c3cc(Cl)cc(Cl)c3)oc2c1` [tafamidis], in series [6], the “patients who do not respond” value was “Approximately 30%”.

Consider patisiran, for which the ocular adverse effect result in [7] was “symptoms of night blindness in a subset of patients”.

Turning to `Cc1cc(C(=O)O)nc(N2CCC(COc3ccccc3C(F)(F)F)C2)n1` (stereo not shown) [ACPHS-52], the “reduction in rhodopsin in comparison to untreated mice” value in the series on rhodopsin turned out to be 3 fold. Besides, the “effect on serum RBP4” value in the series with RBP4 [8] is “pronounced reduction in serum RBP4”. Also, the “effect on TTR tetramers” value on TTR tetramers is listed as “stabilization of TTR tetramers”.

For `Cc1n[nH]c(C)c1CCCOc1cc(C(=O)O)ccc1F` [AG10], the “stabilization of TTR” value with TTR is on record as “near-complete stabilization of TTR”.
